Concentration and TPO activity data for 4 compounds are collected here from patent US6887890B2, “Compounds exhibiting thrombopoietin-like activities” (Chugai Seiyaku Kabushiki Kaisha, priority 2000, dated 2005).

The subject of this experiment is Mpl-expressing Ba/F3 cell line (human mpl gene). In words: Measurement of thrombopoietin (TPO) activity: viable cell count of Mpl-expressing Ba/F3 cell line (Cell Count Reagent SF, absorbance 450 nm). Conditions: for Concentration: concentration corresponding to the maximum TPO activity value; for TPO activity: maximum TPO activity value, ODt/ODs×100 relative to maximum reaction of human TPO, Mpl-expressing Ba/F3 cells cultured at 37° C. for one day, at the concentration given. The experiment is classed as cell-based. On the procedure: The TPO activities of the compounds of the invention obtained in the aforementioned examples were measured by the procedure described below, for evaluation of their thrombopoietic effects.
Establishment of Mpl-expressing Ba/F3 Cell Line
The human mpl gene was cloned from cDNAs of the human erythroleukemia cell line HEL by PCR, and was incorporated into pCOS1 to construct an expression vector. The expression vector was transfected into Ba/F3 cells by electroporation method, and an Mpl-expressing Ba/F3 clone was established.
Measurement of Thrombopoietin (TPO) Activity
The cytokine-eliminated Mpl-expressing Ba/F3 line was plated in a 96-well plate at 25,000 cells/well. DMSO solutions containing the compounds obtained in each of the examples were then prepared to different specified concentration ranges, and each solution was added to the Mpl-expressing Ba/F3 cell line (final DMSO concentration: ≦0.1%), and the cell were cultured at 37° C. for one day. Human TPO (by R&D Systems or Genzyme) was used as a positive control.
Each of the cultured Mpl-expressing Ba/F3 cell lines was subjected to absorbance measurement at a wavelength of 450 nm (reference wavelength: 620 nm), corresponding to the viable cell count, using Cell Count Reagent SF (by Nacalai Tesque Inc.). The TPO activity of each compound for the Mpl-expressing Ba/F3 cell line was determined based on the following formula. TPO activity (%)=ODt/ODs×100
ODs: Absorbance at maximum reaction of human TPO (wavelength: 450-620 nm).
ODt: Absorbance of test solution (wavelength: 450-620 nm).
Tables 1 and 2 show the maximum TPO activity values and the corresponding concentrations of each compound, as obtained by the test described above.

With `NCCCC[C@@H](NC(=O)c1cccc2cc(O)ccc12)C(=O)Nc1ccc(C(c2ccc(NC(=O)[C@@H](CCCCN)NC(=O)c3cccc4cc(O)ccc34)cc2)c2ccc(NC(=O)[C@@H](CCCCN)NC(=O)c3cccc4cc(O)ccc34)cc2)cc1.O=C(O)C(F)(F)F` [Example 192, tris[4-[N-α-(6-hydroxynaphthalen-1-yl)carbonyl-D-lysyl]aminophenyl]methane trifluoroacetate], the Concentration was determined as 25 µM and the TPO activity is given as 71.3%.
Turning to `NCCCC[C@H](NC(=O)Cc1ccccc1)C(=O)Nc1ccc(C(c2ccc(NC(=O)[C@H](CCCCN)NC(=O)Cc3ccccc3)cc2)c2ccc(NC(=O)[C@H](CCCCN)NC(=O)Cc3ccccc3)cc2)cc1.O=C(O)C(F)(F)F` [Example 199, tris[4-[N-α-(2-phenylacetyl)-L-lysyl]aminophenyl]methane trifluoroacetate], the Concentration is 12.5 µM and the TPO activity is reported as 47.0%.
For `NCCCC[C@H](NC(=O)c1cccc2cc(O)ccc12)C(=O)Nc1ccc(C(c2ccc(NC(=O)[C@H](CCCCN)NC(=O)c3cccc4cc(O)ccc34)cc2)c2ccc(NC(=O)[C@H](CCCCN)NC(=O)c3cccc4cc(O)ccc34)cc2)cc1.O=C(O)C(F)(F)F` [Example 200, tris[4-[N-α-(6-hydroxynaphthalen-1-yl)carbonyl-L-lysyl]aminophenyl]methane trifluoroacetate], the Concentration came out at 25 µM and the TPO activity was 144%.
Take `NCCCC[C@@H](NC(=O)Cc1c[nH]c2ccccc12)C(=O)Nc1ccc(N(c2ccc(NC(=O)[C@@H](CCCCN)NC(=O)Cc3c[nH]c4ccccc34)cc2)c2ccc(NC(=O)[C@@H](CCCCN)NC(=O)Cc3c[nH]c4ccccc34)cc2)cc1.O=C(O)C(F)(F)F` [Example 201, tris[4-[N-α-[2-(1H-indol-3-yl)acetyl]-D-lysyl]aminophenyl]amine trifluoroacetate]: the Concentration came out at 25 µM and the TPO activity was 110%.
